Data reported in patent US20210393662A1, “USE OF SGLT2 INHIBITORS TO TREAT PRIMARY SCLEROSING CHOLANGITIS” (AVOLYNT, priority 2018, published 2021).
“Also recorded” adds a separate entry of the source.

Tests used:
[1] = Plasma pharmacokinetics after oral compressed IR tablet; type: in vivo
Excerpt: Oral dosage forms according to the invention are typically tablets or capsules. Tablets can be obtained by direct compression of the mixed components of a dosage form, including an effective dosage amount of remogliflozin etabonate, and selected excipients, like cellulose derivatives, metacrylates, chitosan, carboxymethylstarch, or mixtures thereof. For example, a compressed tablet according to the invention, can be prepared by granulating a SGLT2 inhibitor with microcrystalline cellulose and croscarmellose sodium with a water and povidone solution. The resulting granules are dried, milled, and then blended with mannitol, microcrystalline cellulose, and croscarmellose. The blend is lubricated with magnesium stearate and compressed. […] Indeed, Tmax for an IR remogliflozin etabonate oral dosage form according to the invention occurs at 1 hour, or less, following ingestion of the dosage form by a subject.

[2] = test system: TIA mice; experiment: TIA murine model of PSC, liver histology and survival after 7 weeks on 0.03% remogliflozin etabonate diet; type: in vivo, mouse; conditions: for periportal and biliary inflammation / proliferation of bile ductules: 0.03% in chow from 4 weeks of age
Excerpt: The following Examples describe the utilization of a murine model of […] (“PSC”) to assess the effectiveness of a treatment regimen based on the oral administration of remogliflozin etabonate. The murine PSC model is based on mice that are deficient for the expression of tumor necrosis factor alpha (“TNFα”), interleukin 10 (“IL-10”), and activation-induced cytidine deaminase (“AICDA”). As the mice are deficient in TNF, IL-10, and AICDA, they are referred to, herein, as “TIA” mice.
Moreover, as AICDA is required for immunoglobulin (“Ig”) class switching, TIA mice lack IgG and IgA, a phenotype analogous to humans with hyper-IgM syndrome. Therefore, with the combination of AICDA deficiency with the risk factors associated with TNFα and IL-10 deficiencies, TIA mice also develop liver and biliary inflammation reminiscent of PSC symptoms in humans. Accordingly, the TIA model is useful for investigating mechanisms that act early in PSC pathogenesis, as well as treatments that can prevent progression to PSC.
Example 1. Orally-administered remogliflozin etabonate reduces inflammatory cell infiltration, bile ductular proliferation, and interface hepatitis in TIA mice. TIA mice were created by first breeding TNFα knock out (“KO”) C57BL/6 mice, (strain B6.129S-Tnf^tm1Gkl/J, stock #005540, Jackson Laboratories, Bar Harbor, Me.) with IL-10 KO mice (strain B10.129P2(B6)-IL10^tm1Cgn/J, Stock No. 002251, Jackson Laboratories) to produce a population of mice that were deficient in TNFα and IL-10. Because mice with a TNFα−/− and IL10−/− genotype spontaneously develop inflammatory bowel disease (“IBD”) (Hale 2012), a condition associated with poor breeding success (Nagy 2016), the mice needed for further breeding to generate an AICDA population, were generated by breeding offspring with a TNFα−/− and IL10+/− genotype with AICDA−/− mice, which were obtained from Dr. Tasuku Honjo (Muramatsu 2000)), to produce a population of TNFα−/−, IL10−/−, and AICDA+/−(“TI-hetA”) males and females. In turn, TI-hetA pairs were bred to generate populations that were 25% TIA mice, and 50% non-colitis-susceptible TI-hetA littermates that could be used as control populations. All populations were exposed to the same environment from birth. The mice were housed in polycarbonate micro-isolator cages, in individually ventilated racks, under barrier conditions that excluded all known pathogens, including Helicobacter pylori and Norovirus. Mice had ad libitum access to water, and to a standard diet (PicoLab Mouse Diet 20/5058, LabDiet, St. Louis, Mo., USA).
At four (4) weeks of age, TIA (40) and TI-hetA (22) mice were randomized into experimental groups that received either a standard diet (20 TIA and 12 het), or a standard diet formulated 0.03% remogliflozin etabonate (20 TIA and 10 het) (Avolynt Inc., USA). The mice were maintained on this diet for seven (7) weeks. Body weights were obtained three (3) times, weekly, to assess the general health of mice, and to track the development of inflammatory bowel disease (IBD). Glycosuria in the experimental groups was assessed by applying freshly voided urine directly to the glucose test patch on an Accutest® URS-10 urinary reagent test strips (Jant Pharmaceutical Corp., Encino, Calif., USA). Mice were humanely euthanized before reaching the experimental endpoint, of eleven (11) weeks of age, if they lost>15% body weight, or developed rectal prolapse.
To characterize biliary lesions in TIA mice at the end of the 7 week treatment period, liver tissue was obtained from the remogliflozin-treated, and untreated groups, for histologic examination. The excised liver tissue was fixed in Carnoy's fixative solution, and processed into paraffin blocks. The paraffin blocks were sectioned, and stained with Hematoxylin and eosin (H&E) for pathologic analysis. The H&E-stained sections were scored by an American Board of Pathology-certified pathologist. […]

[3] = TIA mice, H&E liver sections at 11 weeks, vs untreated
[4] = TIA mice, H&E liver sections at 11 weeks, vs untreated, listed as Remo

Which Tmax ([1]; IR remogliflozin etabonate oral dosage form, following ingestion) does the source give for `CCOC(=O)OC[C@H]1O[C@@H](Oc2nn(C(C)C)c(C)c2Cc2ccc(OC(C)C)cc2)[C@H](O)[C@@H](O)[C@@H]1O` [remogliflozin etabonate] here?
Its Tmax is at most 1 h.

What about the “remogliflozin plasma concentration (plasma clearance to)” value ([1]; compressed IR tablet, 350 mg remogliflozin etabonate, oral, after 3 hrs) of the same compound?
Its value is 40 ng/mL.

What about the “maximum remogliflozin plasma concentration (Cmax)” value ([1]; compressed IR tablet, 350 mg remogliflozin etabonate, oral, at 1 hr post-ingestion) of the same compound?
Its value is 160 ng/mL.

And the “number of TIA mice that required early euthanasia” value ([2]; Remo group versus control group)?
The value was “no statistical difference”.

And the early death ([2]; Remo group versus control group, not statistically significant)?
Its early death is “trend toward decreased early death”.

And the “periportal and biliary inflammation” value [2, 3]?
Its value is “less inflammation”.

What about the “proliferation of bile ductules” value [2, 3] of the same compound?
Its value is “reduces; also recorded: less proliferation”.

What about the “periportal and biliary inflammation” value [2, 4] of the same compound?
Its value is “decrease”.

What about the “proliferation of bile ductules” value [2, 4] of the same compound?
Its value is “decrease”.

What about the “inflammation at the interface between hepatic parenchyma and portal tracts (interface hepatitis)” value ([2]; TIA mice, 0.03% in diet for 7 weeks, H&E liver sections at 11 weeks, vs untreated) of the same compound?
The value was “reduces; also recorded: less inflammation”.

What about the “development and progression of liver and biliary disease (PSC disease pathology)” value ([2]; TIA mice, 0.03% in diet for 7 weeks, vs standard diet) of the same compound?
The value was “markedly less development and progression; also recorded: prevents the progression”.

What about the inflammatory cell infiltration ([2]; TIA mice, orally administered) of the same compound?
Its inflammatory cell infiltration is “reduces”.
